Laboratory results taken from publication PMC9841532, “Exploring the Effect of Halogenation in a Series of Potent and Selective A2B Adenosine Receptor Antagonists” (Journal of Medicinal Chemistry, 2022).
Where two headings read alike, the source gives them in different places.

Legend:
hA3AR = target: T1, hA3AR (Homo sapiens, UniProt P0DMS8); test: Radioligand binding competition, [3H]NECA, membranes from HeLa-A3 cells; conditions: for % at 1 μM hA3 (percentage displacement of specific binding): [3H]NECA, human HeLa cells, n = 2
T1 construct: expressed in transfected cells; host or cells: HeLa (HeLa-A3) cell membranes
T1 sequence (P0DMS8 1-318): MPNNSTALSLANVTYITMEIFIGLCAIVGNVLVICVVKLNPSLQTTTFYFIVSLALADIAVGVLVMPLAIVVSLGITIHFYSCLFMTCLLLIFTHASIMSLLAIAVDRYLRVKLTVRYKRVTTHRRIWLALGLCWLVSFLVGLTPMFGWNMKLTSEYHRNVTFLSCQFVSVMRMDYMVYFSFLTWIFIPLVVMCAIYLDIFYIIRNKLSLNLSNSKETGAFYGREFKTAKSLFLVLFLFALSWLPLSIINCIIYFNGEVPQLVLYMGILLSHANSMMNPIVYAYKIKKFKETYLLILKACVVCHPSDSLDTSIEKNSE
Procedure: (§1) All ligands reported in Tables 1–5 were obtained and tested as racemic mixtures. The whole set was evaluated in silico with a combination of a Rdkit[37] PAINS filter and Instant JChem from Chemaxon (https://www.chemaxon.com), to rule out the possibility that these ligands can be promiscuous pan-assay interference compounds (PAINS) and to assess their bioavailability, respectively. […] The stereoisomers of selected compounds were obtained by chiral resolution and tested at the four human AR subtypes in their enantiopure forms (Table 6).
(§2) A brief description is given below. […] Non-specific binding was determined in the presence of 10 μM R-PIA. The reaction mixture was incubated at 25 °C for 60 min. […] The reaction mixture was incubated at 25 °C for 30 min. […] The reaction mixture was incubated at 25 °C for 30 min. […] Non-specific binding was determined in the presence of 100 μM R-PIA. […] After the incubation time, membranes were washed and filtered and radioactivity was detected in a MicroBeta TriLux reader (PerkinElmer).

hA2AAR = target: T2, hA2AAR (Homo sapiens, UniProt P29274); test: Radioligand binding competition, [3H]ZM241385, membranes from HeLa-A2A cells; conditions: 1 μM, [3H]ZM241385, human HeLa cells, n = 2
T2 construct: expressed in transfected cells; host or cells: HeLa (HeLa-A2A) cell membranes
T2 sequence (P29274 whole entry): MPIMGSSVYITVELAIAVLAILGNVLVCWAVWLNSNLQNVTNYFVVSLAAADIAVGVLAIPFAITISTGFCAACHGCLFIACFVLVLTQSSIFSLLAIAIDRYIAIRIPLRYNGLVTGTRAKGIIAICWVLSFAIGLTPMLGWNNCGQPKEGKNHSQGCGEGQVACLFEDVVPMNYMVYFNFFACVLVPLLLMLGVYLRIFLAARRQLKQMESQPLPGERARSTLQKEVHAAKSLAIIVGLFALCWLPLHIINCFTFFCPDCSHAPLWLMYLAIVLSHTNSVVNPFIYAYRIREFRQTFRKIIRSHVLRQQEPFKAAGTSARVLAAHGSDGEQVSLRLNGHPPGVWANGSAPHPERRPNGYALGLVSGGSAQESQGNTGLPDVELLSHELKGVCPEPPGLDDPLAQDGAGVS
Procedure: as §1, §2

hA1AR = target: T3, hA1AR (Homo sapiens, UniProt P30542); test: Radioligand binding competition, [3H]DPCPX, membranes from CHO-A1 cells; conditions: 1 μM, [3H]DPCPX, human CHO cells, n = 2
T3 sequence (P30542 1-326): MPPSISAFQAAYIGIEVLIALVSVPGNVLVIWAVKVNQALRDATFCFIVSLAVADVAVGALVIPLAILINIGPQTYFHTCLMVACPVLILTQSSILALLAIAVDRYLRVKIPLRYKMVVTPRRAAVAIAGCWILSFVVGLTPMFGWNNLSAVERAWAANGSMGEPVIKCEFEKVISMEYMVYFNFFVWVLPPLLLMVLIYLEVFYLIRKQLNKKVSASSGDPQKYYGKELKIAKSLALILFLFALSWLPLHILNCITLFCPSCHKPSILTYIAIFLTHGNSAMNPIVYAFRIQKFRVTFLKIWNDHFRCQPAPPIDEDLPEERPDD
Procedure: as §1, §2

hA2BAR = target: T4, hA2BAR (Homo sapiens, UniProt P29275); test: Radioligand binding competition, [3H]DPCPX, membranes from HEK-293-A2B cells; set-up: Exp. dG: unit not given here; conditions: for % at 1 μM hA2B (percentage displacement of specific binding): [3H]DPCPX, human HEK-293 cells, n = 2; for Ki: read-out: Ki hA2B; for Exp. dG: experimental binding free energy, Supplementary Table S3, unit not given (errors in kcal/mol)
T4 construct: host or cells: HEK-293 (HEK-293-A2B) cell membranes
T4 sequence (P29275 1-332): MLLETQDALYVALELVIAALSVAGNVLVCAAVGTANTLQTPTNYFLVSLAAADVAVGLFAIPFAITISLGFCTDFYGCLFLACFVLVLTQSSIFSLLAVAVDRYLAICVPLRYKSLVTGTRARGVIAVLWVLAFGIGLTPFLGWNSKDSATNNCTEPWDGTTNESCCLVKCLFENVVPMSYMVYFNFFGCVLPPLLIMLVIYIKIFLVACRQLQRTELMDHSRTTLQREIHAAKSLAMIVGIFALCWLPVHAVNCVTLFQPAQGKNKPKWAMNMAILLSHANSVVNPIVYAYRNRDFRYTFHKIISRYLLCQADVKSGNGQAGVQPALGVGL
Procedure: as §1, §2

[1] = displacement of specific [3H]DPCPX binding in human HEK-293 cells, n = 3

| SMILES | % at 1 μM hA3 (percentage displacement of specific binding) (hA3AR) [%] | % at 1 μM hA2A (percentage displacement of specific binding) (hA2AAR) [%] | % at 1 μM hA1 (percentage displacement of specific binding) (hA1AR) [%] | % at 1 μM hA2B (percentage displacement of specific binding) (hA2BAR) [%] | Ki (hA2BAR; [1]) [µM] | Exp. dG (hA2BAR) | Ki (hA2BAR) [µM] | Ki (hA3AR; displacement of specific [3H]NECA binding in human HeLa cells, n = 3, read-out: Ki hA3) [µM] |
| --- | --- | --- | --- | --- | --- | --- | --- | --- |
| CCOC(=O)C1=C(C)Nc2nc3cc(Br)c(Br)cc3n2C1c1ccco1 (stereo not drawn) [14q] | 2 | 17 | 1 | 37 |  |  |  |  |
| CC1=C(C(=O)OC(C)C)C(c2ccsc2)n2c(nc3cc(Br)ccc32)N1 (stereo not drawn) [16x] | 4 | 1 | 2 |  | 0.0611 ± 0.0018 |  |  |  |
| CCOC(=O)C1=C(C)Nc2nc3ccc(F)cc3n2C1c1ccco1 (stereo not drawn) [15a] | 10 | 2 | 16 |  | 0.0675 ± 0.0031 | -9.777 |  |  |
| CC1=C(C(=O)OC(C)C)C(c2cocn2)n2c(nc3ccc(F)cc32)N1 (stereo not drawn) [17b] | 22 | 19 | 34 |  | 0.0076 ± 0.0006 | -11.07 | < 0.01 |  |
| CCOC(=O)C1=C(C)Nc2nc3cc(F)ccc3n2C1c1ccoc1 (stereo not drawn) [16c] | 2 | 21 | 29 |  | 0.0137 ± 0.0009 | -10.72 |  |  |
| CCOC(=O)C1=C(C)Nc2nc3ccc(F)cc3n2C1c1cocn1 (stereo not drawn) [17a] | 26 | 4 | 43 |  | 0.0447 ± 0.0014 | -10.02 |  |  |
| CC1=C(C(=O)OC(C)C)C(c2cocn2)n2c(nc3ccc(Cl)cc32)N1 (stereo not drawn) [17d] | 20 | 1 | 27 |  | 0.102 ± 0.007 | -9.528 |  |  |
| CCOC(=O)C1=C(C)Nc2nc3cc(Cl)ccc3n2[C@H]1c1cocn1 [(R)-18c] | 15 | 32 | 9 | 26 |  |  |  |  |
| CC1=C(C(=O)OC(C)C)C(c2cccs2)n2c(nc3cc(Br)c(Br)cc32)N1 (stereo not drawn) [14v] | 3 | 1 | 1 | 9 |  |  |  |  |
| CC1=C(C(=O)OC(C)C)[C@H](c2ccco2)n2c(nc3cc(F)ccc32)N1 [(R)-16b] | 19 | 5 | 15 | 41 |  |  |  |  |
| CCOC(=O)C1=C(C)Nc2nc3cc(Br)ccc3n2[C@@H]1c1ccoc1 [(R)-16s] | 14 |  | 10 |  | 0.00117 ± 0.0001 |  |  |  |
| CC1=C(C(=O)OC(C)C)C(c2cocn2)n2c(nc3ccccc32)N1 (stereo not drawn) [X, reference compound] |  |  |  |  |  | -10.04 |  |  |
| CC1=C(C(=O)OC(C)C)[C@@H](c2ccco2)n2c(nc3cc(Br)ccc32)N1 [(S)-16r] | 6 |  | 32 |  | 0.00297 ± 0.0004 |  |  |  |
| Nc1nc(NCCc2ccc(O)cc2)nc2nc(-c3ccco3)nn12 [ZM241385, 4-(2-[7-amino-2-(2-furyl)[1,2,4]triazolo[2,3-a][1,3,5]triazin-5-ylamino]ethyl)phenol, reference compound] |  |  |  |  |  |  |  | 0.863 ± 0.004 |
